Results: ChEMBL document CHEMBL1201862, “PubChem BioAssay data set” (2004)
Active and inactive are the calls of the source.

Columns and labels:
Melanocortin receptor 4 = Melanocortin receptor 4 (Homo sapiens, UniProt P32245); assay: inhibitors of MC4R cAMP signaling – cell-based, TR-FRET, biased antagonists, dose response (AID 602298); format: functional;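 also: antagonist potency against agonist-stimulated cAMP production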
[1] = cAMP pathway inhibition in counterscreen cell line – TR-FRET cAMP detection, counter-screen for MC4R biased antagonist project, dose response (AID 602305); format: functional, cell-based;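 also: U2OS cells stimulated with forskolin near its EC80 as the cAMP inducer; potency is for inhibition of forskolin-stimulated cAMP signaling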
[2] = blockers of HIV-1 envelope-mediated cell-cell fusion – cherry-pick, dose response (AID 652057); format: functional, cell-based
[3] = blockers of HIV-1 ZM109 envelope-driven cell-cell fusion – HeLa effector, CEM target cells, luciferase, cherry-pick, dose response (AID 652058); format: functional, cell-based;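 also: luciferase signal from HIV-1 Env mediated cell-cell fusion of effector and target cells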
[4] = off-target signal loss in HeLa-CEM21 co-culture – HeLa F-luc CTL cells, cherry-picked, counter-screen for HIV-1 Env fusion inhibitor project, dose response (AID 652040); format: functional, cell-based;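 also: potency for signal decrease marking cytotoxic or nonspecific inhibition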
[5] = HIV-1 AD8 envelope cell-cell fusion blockers – cherry-pick, dose response (AID 652062); format: functional, cell-based;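 also: luciferase signal from cell-cell fusion driven by HIV-1 clade B AD8 Env; potency is for inhibitors of fusion seen as a drop in luminescence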
Beta-galactosidase [6] = molecular target: T1, Beta-galactosidase (Escherichia coli, UniProt Q8VNN2); assay: Dose response counterscreen for EBI2 assay utilizing the enzyme, b-galactosidase.; format: functional
T1 sequence (Q8VNN2 whole entry): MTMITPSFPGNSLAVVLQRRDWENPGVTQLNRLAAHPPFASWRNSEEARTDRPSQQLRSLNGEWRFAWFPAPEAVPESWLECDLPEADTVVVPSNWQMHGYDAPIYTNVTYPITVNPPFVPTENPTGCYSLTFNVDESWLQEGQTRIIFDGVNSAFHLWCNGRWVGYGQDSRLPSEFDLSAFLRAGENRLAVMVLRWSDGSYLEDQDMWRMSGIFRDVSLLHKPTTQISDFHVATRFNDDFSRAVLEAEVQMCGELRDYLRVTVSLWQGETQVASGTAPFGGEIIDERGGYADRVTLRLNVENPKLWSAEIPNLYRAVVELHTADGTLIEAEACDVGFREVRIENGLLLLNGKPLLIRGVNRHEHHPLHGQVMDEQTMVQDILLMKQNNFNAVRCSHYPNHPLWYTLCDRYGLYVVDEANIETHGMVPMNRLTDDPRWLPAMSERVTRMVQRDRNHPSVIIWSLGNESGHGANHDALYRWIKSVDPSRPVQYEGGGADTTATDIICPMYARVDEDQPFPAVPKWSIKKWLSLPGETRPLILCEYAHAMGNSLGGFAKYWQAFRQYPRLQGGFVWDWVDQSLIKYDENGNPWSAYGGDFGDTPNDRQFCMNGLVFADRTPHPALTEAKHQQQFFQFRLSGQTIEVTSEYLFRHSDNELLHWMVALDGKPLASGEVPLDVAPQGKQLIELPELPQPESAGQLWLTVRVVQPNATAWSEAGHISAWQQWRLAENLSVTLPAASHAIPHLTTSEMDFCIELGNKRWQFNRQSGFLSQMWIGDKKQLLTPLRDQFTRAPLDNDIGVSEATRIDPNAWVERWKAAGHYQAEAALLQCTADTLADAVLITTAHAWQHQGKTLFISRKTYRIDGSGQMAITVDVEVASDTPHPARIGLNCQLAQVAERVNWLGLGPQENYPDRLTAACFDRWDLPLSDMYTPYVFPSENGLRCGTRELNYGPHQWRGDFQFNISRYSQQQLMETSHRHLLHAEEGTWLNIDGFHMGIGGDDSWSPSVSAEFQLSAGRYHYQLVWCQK

Coagulation factor XII = molecular target: T2, Coagulation factor XII (Homo sapiens, UniProt P00748); format: functional;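 also: activated factor XIIa alpha cleaving a fluorogenic AMC peptide substrate; inhibitor potency from loss of enzyme activity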
T2 sequence (P00748 whole entry): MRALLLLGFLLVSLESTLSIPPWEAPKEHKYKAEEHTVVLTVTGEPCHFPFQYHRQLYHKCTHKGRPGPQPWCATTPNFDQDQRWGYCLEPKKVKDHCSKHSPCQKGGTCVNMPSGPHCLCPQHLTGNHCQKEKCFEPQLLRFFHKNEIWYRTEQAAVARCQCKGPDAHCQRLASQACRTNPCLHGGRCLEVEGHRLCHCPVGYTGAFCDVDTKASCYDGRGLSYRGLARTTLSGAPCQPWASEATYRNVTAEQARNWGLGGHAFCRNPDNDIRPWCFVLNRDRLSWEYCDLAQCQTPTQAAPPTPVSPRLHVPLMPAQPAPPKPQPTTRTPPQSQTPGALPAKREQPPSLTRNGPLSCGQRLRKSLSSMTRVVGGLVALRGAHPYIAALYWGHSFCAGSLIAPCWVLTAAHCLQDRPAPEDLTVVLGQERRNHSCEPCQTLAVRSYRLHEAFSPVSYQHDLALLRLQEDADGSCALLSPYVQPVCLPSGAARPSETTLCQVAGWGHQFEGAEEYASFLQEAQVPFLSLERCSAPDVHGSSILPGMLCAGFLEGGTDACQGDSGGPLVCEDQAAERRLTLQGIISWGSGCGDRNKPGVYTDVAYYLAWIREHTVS

Vero [7] = assay: cells; format: functional, cell-based; conditions: Chlorocebus sabaeus
Vero [8] = assay: cells; format: functional; conditions: Chlorocebus sabaeus
Beta-galactosidase [9] = molecular target: T1, Beta-galactosidase; assay: PubChem AID 485352; format: functional
[10] = molecular target: T3, Type-1 angiotensin II receptor (Homo sapiens, UniProt P30556); assay: antagonism of angiotensin II type 1 receptor – cell-based, uHTS hits, selectivity assay for APJ receptor antagonist project, dose response (AID 463214); format: functional;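 also: antagonist potency against angiotensin II stimulated AT1 response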
T3 sequence (P30556 whole entry): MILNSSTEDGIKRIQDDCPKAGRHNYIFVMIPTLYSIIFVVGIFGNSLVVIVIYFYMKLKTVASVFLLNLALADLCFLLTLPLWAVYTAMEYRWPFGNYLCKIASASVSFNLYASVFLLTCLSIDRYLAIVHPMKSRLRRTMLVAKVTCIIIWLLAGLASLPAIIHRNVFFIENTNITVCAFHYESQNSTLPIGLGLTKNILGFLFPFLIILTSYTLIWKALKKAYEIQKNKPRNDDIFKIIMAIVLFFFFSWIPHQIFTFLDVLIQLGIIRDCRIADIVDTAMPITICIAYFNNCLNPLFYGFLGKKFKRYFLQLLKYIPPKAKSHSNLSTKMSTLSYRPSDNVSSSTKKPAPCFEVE

[11] = system: Streptococcus sp. 'group A'; assay: Streptococcus pyogenes SK(-)GAS viability under kanamycin – luminescence, BacTiterGlo, confirmation, counter-screen for streptokinase expression inhibitor project, dose response (AID 1900); format: functional, organism-based
Streptokinase A = molecular target: T4, Streptokinase A (Streptococcus pyogenes serotype M1, UniProt P10520); assay: viability-normalized secreted streptokinase activity reduction – plasminogen activation absorbance, OD405, dose response (AID 1914); format: functional, Streptococcus pyogenes M1 GAS;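 also: secreted streptokinase activity via plasminogen activation per viability signal from cell pellet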
T4 sequence (P10520 whole entry): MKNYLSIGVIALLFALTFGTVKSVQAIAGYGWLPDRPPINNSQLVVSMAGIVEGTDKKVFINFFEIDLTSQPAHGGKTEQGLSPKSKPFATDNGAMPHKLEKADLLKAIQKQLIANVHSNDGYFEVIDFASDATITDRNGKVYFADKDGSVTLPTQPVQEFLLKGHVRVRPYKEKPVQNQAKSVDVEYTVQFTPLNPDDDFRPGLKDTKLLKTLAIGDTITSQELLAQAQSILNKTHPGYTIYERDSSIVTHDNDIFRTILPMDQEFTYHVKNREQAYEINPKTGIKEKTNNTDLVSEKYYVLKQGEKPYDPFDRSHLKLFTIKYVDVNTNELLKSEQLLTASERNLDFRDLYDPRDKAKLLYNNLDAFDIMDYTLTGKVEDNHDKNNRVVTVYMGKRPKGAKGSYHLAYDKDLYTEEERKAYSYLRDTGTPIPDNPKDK

Streptococcus = assay: GAS UMAA2166 growth inhibition – luminescence, BacTiterGlo, counter-screen for streptokinase expression inhibitor project, dose response (AID 1915); format: functional, organism-based;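 also: potency for reduction of bacterial viability or growth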
[12] = Trypanosoma cruzi growth suppression in host cells – NIH3T3 host cells, beta-gal luminescence, confirmation (AID 2044); format: functional, cell-based;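 also: intracellular parasites grown in NIH/3T3 mouse fibroblasts as host cells; luminescent beta-galactosidase reporter signal from transgenic T. cruzi replicating inside host cells; inhibitors lower the luminescence signal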
[13] = HEK-293T cell viability reduction – luminescence, B-cell screen hits, cytotoxicity control for BCR NF-kB inhibitor project, dose response (AID 489021); format: functional, cell-based;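 also: HEK-293T cells carrying an NF-kB luciferase reporter; cells exposed to compound for about 14 hours before viability readout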
cells [14] = format: functional, cell-based
cells [15] = format: functional, cell-based; remark: listed apart in the source

Melanocortin receptor 4, sequence (P32245 whole entry): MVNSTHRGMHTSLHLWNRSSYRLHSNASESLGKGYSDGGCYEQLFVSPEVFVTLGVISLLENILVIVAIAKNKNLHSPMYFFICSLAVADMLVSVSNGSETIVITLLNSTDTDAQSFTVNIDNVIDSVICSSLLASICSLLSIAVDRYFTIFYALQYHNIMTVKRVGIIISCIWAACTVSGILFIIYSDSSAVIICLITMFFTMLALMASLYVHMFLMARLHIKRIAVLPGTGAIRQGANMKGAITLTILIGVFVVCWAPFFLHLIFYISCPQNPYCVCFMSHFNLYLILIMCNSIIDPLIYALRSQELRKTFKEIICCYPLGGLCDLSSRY

Q: With `O=S(=O)(c1ccc(F)cc1)N1CCN(c2nc(-c3cccnc3)nc3ccccc23)CC1` as the molecule, how does the IC50 (Melanocortin receptor 4) read?
A: > 64.6 µM (inactive)

Q: And the IC50 [1]?
A: > 64.6 µM (inactive)

Q: With `COc1cc(C(=O)N2CCN(c3ncnc4sc(C)c(C)c34)CC2)cc(OC)c1OC` as the molecule, how does the AC50 [2] read?
A: 33.7 µM (active)

Q: What about the AC50 [3] of the same molecule?
A: 6.73 µM (active)

Q: And the AC50 [4]?
A: 24.4 µM (active)

Q: And the AC50 [5]?
A: 8.4 µM (active)

Q: Which IC50 (Beta-galactosidase [6]) does the source give for `O=C(/C=C/c1ccc([N+](=O)[O-])cc1)N1CCN(S(=O)(=O)c2ccccc2)CC1` here?
A: > 80 µM (inactive)

Q: Which results are given for `COc1ccccc1C1(CCNC(C)c2cccs2)CCOC(C(C)C)C1` (stereo not given)?
A: IC50 (Melanocortin receptor 4): 10.1 µM (inactive); IC50 [1]: > 64.5 µM (inactive)

Q: For `CCOC(=O)C(C(=O)NCc1cccc(OC)c1)c1ncc(C(F)(F)F)cc1Cl` (stereo not given), which IC50 (Coagulation factor XII) is on record?
A: > 50 µM (inactive)

Q: Which results are given for `CCOC(=O)c1c(SCCN2CCCCC2)n(-c2ccccc2)c(=S)n(-c2ccccc2)c1=O`?
A: IC50 (Vero [7]): 20.1 µM (active); CC50 (Vero [8]): > 25 µM (active)

Q: Which IC50 (Beta-galactosidase [6]) does the source give for `Cc1ccc(OCC(=O)N2CCN(S(=O)(=O)c3ccc4c(c3)OCCO4)CC2)c(C)c1` here?
A: > 80 µM (inactive)

Q: For `C[C@@H]1CNC(=O)c2c(C(=O)N3CCN(c4ccccc4)CC3)ncn21`, which AC50 [2] is on record?
A: 7.81 µM (active)

Q: What about the AC50 [3] of the same molecule?
A: 14.8 µM (active)

Q: And the AC50 [4]?
A: 10.4 µM (active)

Q: What about the AC50 [5] of the same molecule?
A: 19.7 µM (active)

Q: For `O=[N+]([O-])c1cccc(/C=N/NS(=O)(=O)c2ccccc2)c1`, which EC50 (Beta-galactosidase [9]) is on record?
A: > 40 µM (inactive)

Q: What about the IC50 [10] of the same molecule?
A: 24.3 µM (not active)

Q: Which results are given for `Cc1ccc(Cn2cc(/C=N/NC(=O)Cc3nnc(NC(=O)c4ccc(C)cc4)s3)c3ccccc32)cc1`?
A: EC50 [11]: 2.5 µM (active); EC50 (Streptokinase A): > 150 µM (not active); EC50 (Streptococcus): 36.9 µM (active); IC50 (Coagulation factor XII): > 50 µM (inactive)

Q: For `Cc1ccc(Nc2nc(N/N=C\c3ccc4c(c3)OCO4)nc(N3CCOCC3)n2)cc1`, which EC50 [11] is on record?
A: 21.8 µM (active)

Q: What about the EC50 (Streptokinase A) of the same molecule?
A: 111 µM (active)

Q: And the EC50 [12]?
A: 0.393 µM (active)

Q: And the EC50 (Streptococcus)?
A: > 150 µM (not active)

Q: What about the IC50 [13] of the same molecule?
A: 63.2 µM (inactive)

Q: For `COc1cc(/C=N/CC2OCCc3ccccc32)cc(OC)c1` (stereo not given), which IC50 (cells [14]) is on record?
A: > 29.9 µM (inactive)

Q: What about the EC50 (cells [15]) of the same molecule?
A: > 29.9 µM (inactive)
